Key:
[1] = excess molar enthalpy (molar enthalpy of mixing); xn = mol fraction of the nth substance listed; conditions: 101 kPa, Liquid, Flow calorimetry
[2] = activity coefficient (dimensionless); of the first substance listed, at infinite dilution; xn = mol fraction of the nth substance listed; conditions: 101 kPa, Liquid, x1 = 0
[3] = 101.33 kPa, Liquid, Vibrating tube method

CCCCn1cc[n+](C)c1.O=S(=O)([O-])C(F)(F)F [1-butyl-3-methylimidazolium trifluoromethanesulfonate] + C=CCCCC
[1], 413.15 K
Conditions | excess molar enthalpy [kcal/mol]
x2 = 0.0431 | 0.0234
x2 = 0.0845 | 0.0443
x2 = 0.1632 | 0.0602
x2 = 0.2004 | 0.0576
x2 = 0.2364 | 0.0555
x2 = 0.3049 | 0.0508
x2 = 0.3691 | 0.0468
x2 = 0.4292 | 0.0423
x2 = 0.5391 | 0.0335
x2 = 0.637 | 0.0269
x2 = 0.7247 | 0.0206
x2 = 0.8404 | 0.0125
x2 = 0.9405 | 0.00488

CCCCn1cc[n+](C)c1.O=S(=O)([O-])C(F)(F)F [1-butyl-3-methylimidazolium trifluoromethanesulfonate] + CCCCCC
[1], 413.15 K
Conditions | excess molar enthalpy [kcal/mol]
x2 = 0.0413 | 0.0571
x2 = 0.1199 | 0.0756
x2 = 0.1573 | 0.0722
x2 = 0.1936 | 0.0687
x2 = 0.2287 | 0.0655
x2 = 0.2958 | 0.0595
x2 = 0.359 | 0.0545
x2 = 0.4186 | 0.0494
x2 = 0.5283 | 0.0413
x2 = 0.6269 | 0.0317
x2 = 0.7159 | 0.0248
x2 = 0.8344 | 0.0148
x2 = 0.938 | 0.00684

CCCCn1cc[n+](C)c1.O=S(=O)([O-])C(F)(F)F [1-butyl-3-methylimidazolium trifluoromethanesulfonate] + CCCCCCC
[1]
Conditions | excess molar enthalpy [kcal/mol]
363.15 K, x2 = 0.02 | 0.0178
363.15 K, x2 = 0.0501 | 0.0321
363.15 K, x2 = 0.1001 | 0.0421
363.15 K, x2 = 0.1502 | 0.0435
363.15 K, x2 = 0.2002 | 0.0418
363.15 K, x2 = 0.3003 | 0.037
363.15 K, x2 = 0.4003 | 0.0312
363.15 K, x2 = 0.5003 | 0.0263
363.15 K, x2 = 0.6003 | 0.0207
363.15 K, x2 = 0.7003 | 0.0152
363.15 K, x2 = 0.8002 | 0.00987
363.15 K, x2 = 0.9001 | 0.00492
413.15 K, x2 = 0.0371 | 0.073
413.15 K, x2 = 0.1085 | 0.0833
413.15 K, x2 = 0.143 | 0.0831
413.15 K, x2 = 0.1766 | 0.0805
413.15 K, x2 = 0.2094 | 0.0775
413.15 K, x2 = 0.2729 | 0.0713
413.15 K, x2 = 0.3335 | 0.0655
413.15 K, x2 = 0.3915 | 0.0611
413.15 K, x2 = 0.5002 | 0.0505
413.15 K, x2 = 0.6002 | 0.0409
413.15 K, x2 = 0.6925 | 0.0319
413.15 K, x2 = 0.8183 | 0.0198
413.15 K, x2 = 0.9311 | 0.0076

C=CCCCCC [1-heptene] + CCCCCCCCn1cc[n+](C)c1.O=S(=O)([O-])C(F)(F)F
[2], dilutor technique
Conditions | activity coefficient
303.21 K | 6.11
313.15 K | 6.03
323.14 K | 5.97
333.12 K | 5.89

C=CCCCCC [1-heptene] + CCCCCCn1cc[n+](C)c1.O=S(=O)([O-])C(F)(F)F
activity coefficient, [2]
Conditions | 303.14 K | 303.16 K | 313.15 K | 313.17 K | 323.15 K | 333.14 K | 333.18 K
Chromatography | 11.2 | – | 10.8 | – | 10.6 | 10.4 | –
dilutor technique | – | 11 | – | 10.6 | 10.4 | – | 10.1

C=CCCCCC [1-heptene] + CCCCn1cc[n+](C)c1.O=S(=O)([O-])C(F)(F)F
activity coefficient, [2]
Conditions | 303.17 K | 303.45 K | 313.13 K | 313.15 K | 323.14 K | 323.16 K | 333.15 K | 333.16 K
Chromatography | – | 21.8 | – | 21.3 | 20.6 | – | 19.9 | –
Dilutor technique | 22.1 | – | 21.2 | – | – | 20.2 | – | 19.7

CCCCCCn1cc[n+](C)c1.O=S(=O)([O-])C(F)(F)F [1-hexyl-3-methylimidazolium trifluoromethanesulfonate]
[3]
Conditions | mass density [kg/m3]
308.16 K | 1231.4
313.16 K | 1227.6
318.16 K | 1223.8
323.16 K | 1220
328.16 K | 1216.2
333.16 K | 1212.5
338.16 K | 1208.7
343.16 K | 1205
348.15 K | 1201.3

CCCCCCn1cc[n+](C)c1.O=S(=O)([O-])C(F)(F)F [1-hexyl-3-methylimidazolium trifluoromethanesulfonate] + C=CCCCC
[1], 413.15 K
Conditions | excess molar enthalpy [kcal/mol]
x2 = 0.0407 | 0.00805
x2 = 0.0604 | 0.0117
x2 = 0.0797 | 0.0159
x2 = 0.0987 | 0.0205
x2 = 0.1172 | 0.0245
x2 = 0.1353 | 0.0282

CCCCCCCCn1cc[n+](C)c1.O=S(=O)([O-])C(F)(F)F [1-octyl-3-methylimidazolium trifluoromethanesulfonate]
[3]
Conditions | mass density [kg/m3]
293.15 K | 1197
298.15 K | 1193.2
303.15 K | 1189.5
308.14 K | 1185.8
313.15 K | 1182.1
318.15 K | 1178.4
323.14 K | 1174.7
328.14 K | 1171.1
333.14 K | 1167.4
338.14 K | 1163.7
343.15 K | 1160.1
348.15 K | 1156.5
353.14 K | 1152.9
